# Laboratory results taken from patent US10538554B2, “Peptides and uses therefor as antiviral agents” (priority 2015, dated 2020).
# Read-outs that look alike come from different tables or passages of the source. Bridge positions count the residues as written; N and C are the ends. Square brackets hold non-standard residues; d marks the D form. Peptide text beside a SMILES is read from it.
# Tests used:
# [1] = tested on: H9N2 A/Iran/16/2000; settings: 48 h
# [2] = tested on: avian influenza A virus H9N2; settings: cited from earlier work
# [3] = tested on: H1N1 A/PR/8/1934; assay: microbe, parasite or virus in culture; settings: Influenza A virus, MDCK, read-out: IC50 PR8
# [4] = tested on: H1N1 A1/Malaysia/302/1954; settings: A1/Malaysia/302/1954, 48 h
# [5] = tested on: H3N8 A/Miami/2/63; settings: A/Miami/2/63, 48 h
# [6] = tested on: H3N2 A/HK/8/1968; settings: A/HK/8/1968, 48 h
# [7] = tested on: H1N1 A/NY/18/2009; settings: A/NY/18/2009, 48 h; for % Inhibition Pdm 2009: 10 μM
# [8] = tested on: H1N1 A/PR/8/1934; settings: A/PR/8/1934, 48 h; for % Inhibition PR/8: 10 μM; for % Inhibition: 1 μM
# [9] = tested on: H5N1 A/Kampung pasir/5744/2004; settings: A/Kampung pasir/5744/2004, 48 h
# [10] = tested on: Influenza B/MALAYSIA/2506/04
SMILES,IC50 [1],% inhibition H9N2 ([1]; 10 μM),IC50 [4],% inhibition H1N1 ([4]; 10 μM),IC50 [5],% inhibition H3N8 ([5]; 10 μM),IC50 [6],% inhibition H3N2 ([6]; 10 μM),IC50 [7],% Inhibition Pdm 2009 [7],IC50 [8],% Inhibition PR/8 [8],also measured
"C[C@@H](O)[C@@H]1NC(=O)[C@H](CCCCN)NC(=O)[C@H](CO)NC(=O)[C@H](CCCNC(=N)N)NC(=O)[C@H](Cc2ccccc2)NC(=O)[C@H](CC(=O)O)NC(=O)[C@H](CC(N)=O)NC(=O)[C@@H](N)CSSC[C@@H](C(=O)O)NC1=O [C-P1, H-CNDFRSKTC-OH, reference compound] (H-CNDFRSKTC-OH; disulfide 1-9)",> 320000 nM,,,,,,,,,,,,inhibition of avian influenza A virus H9N2 replication [2]: modest efficacy
CCC(CC)O[C@@H]1C=C(C(=O)O)C[C@H](N)[C@H]1NC(C)=O [Oseltamivir acid],,,,,,,,,,,,,IC50 [3]: 140 nM
"CC[C@@H](C)[C@H]1NC(=O)[C@@H](Cc2ccccc2)NC(=O)[C@@H](CCCNC(=N)N)NC(=O)[C@@H](Cc2ccccc2)NC(=O)[C@@H](Cc2c[nH]c3ccccc23)NC(=O)[C@@H]([C@H](C)O)NC(=O)[C@H](NC(=O)[C@H](CCCCN)NC(=O)[C@H](CCCCN)NC(=O)[C@H](CCCNC(=N)N)NC(=O)[C@@H](N)CCCNC(=N)N)CSSC[C@H](C(=O)O)NC(=O)[C@@H](CC(N)=O)NC1=O [PSP III B5, H-RRKKctwfrfinc-OH] (H-RRKK[dC][dT][dW][dF][dR][dF][dI][dN][dC]-OH; disulfide 5-13)",900 nM,76%,1600 nM,80%,150 nM,92%,1400 nM,87%,1170 nM,73%,1200 nM,88%,% inhibition H9N2 ([1]; 50 μM): 90%; % inhibition H1N1 ([4]; 50 μM): 96%; % inhibition H3N8 ([5]; 50 μM): 100%; % inhibition H3N2 ([6]; 50 μM): 100%; IC50 [9]: 220 nM
"CC[C@@H](C)[C@H]1NC(=O)[C@@H](Cc2ccccc2)NC(=O)[C@@H](Cc2ccccc2)NC(=O)[C@@H](Cc2ccccc2)NC(=O)[C@@H](Cc2c[nH]c3ccccc23)NC(=O)[C@@H]([C@H](C)O)NC(=O)[C@H](NC(=O)[C@H](CCCCN)NC(=O)[C@H](CCCCN)NC(=O)[C@H](CCCNC(=N)N)NC(=O)[C@@H](N)CCCNC(=N)N)CSSC[C@H](C(=O)O)NC(=O)[C@@H](CC(N)=O)NC1=O [PSP IV A5, H-RRKKctwfffinc-OH] (H-RRKK[dC][dT][dW][dF][dF][dF][dI][dN][dC]-OH; disulfide 5-13)",760 nM,93%,300 nM,99%,300 nM,98%,300 nM,99%,1000 nM,98%,400 nM,99%,IC50 [9]: 550 nM
"CC[C@@H](C)[C@H]1NC(=O)[C@@H](Cc2ccccc2)NC(=O)[C@@H]([C@H](C)O)NC(=O)[C@@H](Cc2ccccc2)NC(=O)[C@@H](Cc2c[nH]c3ccccc23)NC(=O)[C@@H]([C@H](C)O)NC(=O)[C@H](NC(=O)[C@H](CCCCN)NC(=O)[C@H](CCCCN)NC(=O)[C@H](CCCNC(=N)N)NC(=O)[C@@H](N)CCCNC(=N)N)CSSC[C@H](C(=O)O)NC(=O)[C@@H](CC(N)=O)NC1=O [PSP IV A17, H-RRKKctwftfinc-OH] (H-RRKK[dC][dT][dW][dF][dT][dF][dI][dN][dC]-OH; disulfide 5-13)",,92%,51 nM,91%,,97%,56 nM,97%,33 nM,97%,260 nM,97%,% Inhibition [8]: <20%; IC50 [10]: 990 nM
"CC[C@@H](C)[C@H]1NC(=O)[C@@H](Cc2ccccc2)NC(=O)[C@@H](C(C)C)NC(=O)[C@@H](Cc2ccccc2)NC(=O)[C@@H](Cc2c[nH]c3ccccc23)NC(=O)[C@@H]([C@H](C)O)NC(=O)[C@H](NC(=O)[C@H](CCCCN)NC(=O)[C@H](CCCCN)NC(=O)[C@H](CCCNC(=N)N)NC(=O)[C@@H](N)CCCNC(=N)N)CSSC[C@H](C(=O)O)NC(=O)[C@@H](CC(N)=O)NC1=O [PSP IV A18, H-RRKKctwfvfinc-OH] (H-RRKK[dC][dT][dW][dF][dV][dF][dI][dN][dC]-OH; disulfide 5-13)",,95%,,84%,,96%,,96%,,97%,,96%,
"CC[C@@H](C)[C@H]1NC(=O)[C@@H](Cc2ccccc2)NC(=O)[C@@H](Cc2c[nH]c3ccccc23)NC(=O)[C@@H](Cc2ccccc2)NC(=O)[C@@H](Cc2c[nH]c3ccccc23)NC(=O)[C@@H]([C@H](C)O)NC(=O)[C@H](NC(=O)[C@H](CCCCN)NC(=O)[C@H](CCCCN)NC(=O)[C@H](CCCNC(=N)N)NC(=O)[C@@H](N)CCCNC(=N)N)CSSC[C@H](C(=O)O)NC(=O)[C@@H](CC(N)=O)NC1=O [PSP IV A19, H-RRKKctwfwfinc-OH] (H-RRKK[dC][dT][dW][dF][dW][dF][dI][dN][dC]-OH; disulfide 5-13)",,95%,,87%,,94%,,94%,,94%,,90%,
"CC[C@@H](C)[C@H]1NC(=O)[C@@H](Cc2ccccc2)NC(=O)[C@@H](Cc2ccc(O)cc2)NC(=O)[C@@H](Cc2ccccc2)NC(=O)[C@@H](Cc2c[nH]c3ccccc23)NC(=O)[C@@H]([C@H](C)O)NC(=O)[C@H](NC(=O)[C@H](CCCCN)NC(=O)[C@H](CCCCN)NC(=O)[C@H](CCCNC(=N)N)NC(=O)[C@@H](N)CCCNC(=N)N)CSSC[C@H](C(=O)O)NC(=O)[C@@H](CC(N)=O)NC1=O [PSP IV A20, H-RRKKctwfyfinc-OH] (H-RRKK[dC][dT][dW][dF][dY][dF][dI][dN][dC]-OH; disulfide 5-13)",,85%,,79%,,89%,,89%,,79%,,85%,
"CC[C@@H](C)[C@H]1NC(=O)[C@@H](Cc2ccccc2)NC(=O)[C@@H]([C@H](C)O)NC(=O)[C@@H](Cc2ccccc2)NC(=O)[C@@H](Cc2c[nH]c3ccccc23)NC(=O)[C@@H](Cc2c[nH]c3ccccc23)NC(=O)[C@H](NC(=O)[C@H](CCCCN)NC(=O)[C@H](CCCCN)NC(=O)[C@H](CCCNC(=N)N)NC(=O)[C@@H](N)CCCNC(=N)N)CSSC[C@H](C(=O)O)NC(=O)[C@@H](C)NC1=O [PSP VI A1, H-RRKKcwwftfiac-OH] (H-RRKK[dC][dW][dW][dF][dT][dF][dI][dA][dC]-OH; disulfide 5-13)",10.4 nM,,5 nM,,2 nM,,1.9 nM,,0.13 nM,,4 nM,,% Inhibition [8]: 98.5%; IC50 [10]: 1.2 nM
